Data published in patent US6083944A, “Quinoline-containing α-ketoamide cysteine and serine protease inhibitors” (Cephalon, Inc., priority 1998, dated 2000).

What follows are compounds tested against T1, Recombinant human calpain I (Homo sapiens, UniProt P07384) (assay: Inhibition of calpain I (Succ-Leu-Tyr-MNA hydrolysis)). Conditions: Table 5; ** explained as 10,000 nM only in footnotes to Tables 2-4.
T1 construct: made in house
T1 sequence (P07384 1-714): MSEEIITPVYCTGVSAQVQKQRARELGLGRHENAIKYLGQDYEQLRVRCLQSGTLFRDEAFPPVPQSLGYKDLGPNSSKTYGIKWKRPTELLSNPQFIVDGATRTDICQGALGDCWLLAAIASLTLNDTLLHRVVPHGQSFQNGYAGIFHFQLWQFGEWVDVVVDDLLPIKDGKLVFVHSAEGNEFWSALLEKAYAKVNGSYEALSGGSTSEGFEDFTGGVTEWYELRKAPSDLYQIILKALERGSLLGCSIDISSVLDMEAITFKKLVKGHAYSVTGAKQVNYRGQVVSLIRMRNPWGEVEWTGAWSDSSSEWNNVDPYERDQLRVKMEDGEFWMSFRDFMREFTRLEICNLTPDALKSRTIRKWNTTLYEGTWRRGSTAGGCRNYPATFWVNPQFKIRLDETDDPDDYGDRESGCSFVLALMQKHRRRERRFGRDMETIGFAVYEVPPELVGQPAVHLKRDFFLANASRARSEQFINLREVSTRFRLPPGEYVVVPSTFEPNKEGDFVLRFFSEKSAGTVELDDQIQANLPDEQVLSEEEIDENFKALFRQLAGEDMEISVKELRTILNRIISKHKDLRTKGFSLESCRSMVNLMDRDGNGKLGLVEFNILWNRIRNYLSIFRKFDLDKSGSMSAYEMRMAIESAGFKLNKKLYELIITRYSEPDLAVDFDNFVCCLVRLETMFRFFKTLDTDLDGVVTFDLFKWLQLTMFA
Type: biochemical
Protocol: To evaluate inhibitory activity, stock solutions (40 times concentrated) of each compound to be tested were prepared in 100% anhydrous DMSO and 5 μl of each inhibitor preparation was aliquoted into each of three wells of a 96-well plate. Recombinant human calpain I, prepared by the method of Meyer et al. (Biochem. J. 1996, 314: 511-519), was diluted into assay buffer (i.e., 50 mM Tris, 50 mM NaCl, 1 mM EDTA, 1 mM EGTA, and 5 mM β-mercaptoethanol, pH 7.5, including 0.2 mM Succ-Leu-Tyr-MNA), and 175 μl was aliquoted into the same wells containing the independent inhibitor stocks as well as to positive control wells containing 5 μl DMSO, but no compound. To start the reaction, 20 μl of 50 mM CaCl2 in assay buffer was added to all wells of the plate, excepting three, which were used as background signal baseline controls. Substrate hydrolysis was monitored every 5 minutes for a total of 30 minutes. Substrate hydrolysis in the absence of inhibitor was linear for up to 15 minutes.
Inhibition of calpain I activity was calculated as the percent decrease in the rate of substrate hydrolysis in the presence of inhibitor relative to the rate in its absence. Comparison between the inhibited and control rates was made within the linear range for substrate hydrolysis. The IC50 S of inhibitors (concentration yielding 50% inhibition) were determined from the percent decrease in rates of substrate hydrolysis in the presence of five to seven different concentrations of the test compound. The results were plotted as percent inhibition versus log inhibitor concentration, and the IC50 was calculated by fitting the data to the four-parameter logistic equation shown below using the program GraphPad Prism (GraphPad Software, Inc., San Diego, Calif.).
The parameters a, b, c, and d are defined as follows: a is % inhibition in the absence of inhibitor, b is the slope, c is the IC50, and d is the % inhibition at an infinite concentration of inhibitor.

| Calpain I IC50 ** (value in parentheses: % inhibition) [%] | Structure (SMILES) |
| --- | --- |
| 78 | CCCC(NC(=O)c1cc(Cl)nc2ccccc12)C(=O)C(=O)NCCNS(=O)(=O)c1ccc([N+](=O)[O-])cc1 (stereo not shown) [Example 150] |
| 95 | O=C(NCCNS(=O)(=O)c1ccccc1)C(=O)C(Cc1ccccc1)NC(=O)c1nc(-c2ccccc2)nc2ccccc12 (stereo not shown) [Example 153] |

Same assay, conditions: Table 5; head prints no unit

| IC50 [nM] | Structure (SMILES) |
| --- | --- |
| 23 | CCCCC(NC(=O)c1cc(Cl)nc2ccccc12)C(=O)C(=O)NCCNS(=O)(=O)c1ccc([N+](=O)[O-])cc1 (stereo not shown) [Example 149] |
| 43 | CCCC(NC(=O)c1cc(Cl)nc2ccccc12)C(=O)C(=O)NCCNS(=O)(=O)c1ccc(-c2ccccn2)s1 (stereo not shown) [Example 156] |
| 31 | CCCCC(NC(=O)c1cc(Cl)nc2ccccc12)C(=O)C(=O)NCCNS(=O)(=O)c1ccc(-c2ccccn2)s1 (stereo not shown) [Example 155] |
| 83 | O=C(NCCNS(=O)(=O)c1ccc(-c2ccccn2)s1)C(=O)C(Cc1ccccc1)NC(=O)c1nc(-c2ccccc2)nc2ccccc12 (stereo not shown) [Example 154] |
| 325 | CCCC(NC(=O)c1cc(Cl)nc2ccccc12)C(=O)C(=O)NCCNS(=O)(=O)c1ccc(Cl)c(Cl)c1 (stereo not shown) [Example 152] |

Same assay, conditions: Tables 2-4; pH 7.5

| Structure (SMILES) | IC50 [nM] |
| --- | --- |
| O=C(NCCNS(=O)(=O)c1cccnc1)C(=O)C(Cc1ccccc1)NC(=O)c1cc(Cl)nc2ccccc12 (single isomer, unassigned) [Example 141] | 87 |
| O=C(NCCNS(=O)(=O)c1ccccc1)C(=O)C(Cc1ccccc1)NC(=O)c1cc(CCc2ccccc2)nc2ccccc12 (stereo not shown) [Example 137] | 16 |
| O=C(NCCNC(=O)C(=O)C(Cc1ccccc1)NC(=O)c1cc(C#Cc2ccccc2)nc2ccccc12)NC12CC3CC(CC(C3)C1)C2 (stereo not shown) [Example 63] | 257 |
| NS(=O)(=O)c1ccc(CNC(=O)C(=O)C(Cc2ccccc2)NC(=O)c2cc(C#Cc3ccccc3)nc3ccccc23)cc1 (stereo not shown) [Example 39] | 184 |
| O=C(NC1CCCCNC1=O)C(=O)C(Cc1ccccc1)NC(=O)c1cc(C#Cc2ccccc2)nc2ccccc12 (stereo not shown) [Example 22] | 78 |
| COc1ccc2[nH]cc(CCNC(=O)C(=O)C(Cc3ccccc3)NC(=O)c3cc(C#Cc4ccccc4)nc4ccccc34)c2c1 (stereo not shown) [Example 49] | 160 |
| O=C(NCCNS(=O)(=O)Cc1ccccc1)C(=O)C(Cc1ccccc1)NC(=O)c1cc(C#Cc2ccccc2)nc2ccccc12 (stereo not shown) [Example 92] | 94 |
| O=C(NCCNS(=O)(=O)C=Cc1ccccc1)C(=O)C(Cc1ccccc1)NC(=O)c1cc(C#Cc2ccccc2)nc2ccccc12 (stereo not shown) [Example 91] | 42 |
| O=C(NCCNS(=O)(=O)c1cccnc1)C(=O)[C@H](Cc1ccccc1)NC(=O)c1cc(C#Cc2ccccc2)nc2ccccc12 [Example 87] | 56 |
| CCCCNC(=O)C(=O)C(Cc1ccccc1)NC(=O)c1cc(C=Cc2ccccc2)nc2ccccc12 (stereo not shown) [Example 130] | 105 |
| O=C(NOCCNS(=O)(=O)c1ccccc1)C(=O)C(Cc1ccccc1)NC(=O)c1cc(C#Cc2ccccc2)nc2ccccc12 (stereo not shown) [Example 105] | 128 |
| O=C(NCCCN1CCOCC1)C(=O)C(Cc1ccccc1)NC(=O)c1cc(C#Cc2ccccc2)nc2ccccc12 (stereo not shown) [Example 51] | 424 |
| O=C(NCCCCc1ccccc1)C(=O)C(Cc1ccccc1)NC(=O)c1cc(C#Cc2ccccc2)nc2ccccc12 (stereo not shown) [Example 34] | 227 |

More lines, now with the values ahead:

| IC50 [nM] | Structure (SMILES) |
| --- | --- |
| 630 | O=C(NCCOCCO)C(=O)C(Cc1ccccc1)NC(=O)c1cc(C#Cc2ccccc2)nc2ccccc12 (stereo not shown) [Example 10] |
| 480 | COCCNC(=O)C(=O)C(Cc1ccccc1)NC(=O)c1cc(C#Cc2ccccc2)nc2ccccc12 (stereo not shown) [Example 11] |
| 390 | O=C(NCCc1ccccc1)C(=O)C(Cc1ccccc1)NC(=O)c1cc(C#Cc2ccccc2)nc2ccccc12 (stereo not shown) [Example 43] |
| 180 | CS(=O)(=O)NCCNC(=O)C(=O)C(Cc1ccccc1)NC(=O)c1cc(C#Cc2ccccc2)nc2ccccc12 (stereo not shown) [Example 93] |
| 130 | CS(=O)(=O)NCCCNC(=O)C(=O)C(Cc1ccccc1)NC(=O)c1cc(C#Cc2ccccc2)nc2ccccc12 (stereo not shown) [Example 99] |
| 210 | C=CCNC(=O)C(=O)C(Cc1ccccc1)NC(=O)c1cc(C#Cc2ccccc2)nc2ccccc12 (stereo not shown) [Example 3] |
| 510 | CC(NC(=O)C(=O)C(Cc1ccccc1)NC(=O)c1cc(C#Cc2ccccc2)nc2ccccc12)c1ccccc1 (stereo not shown) [Example 27] |

Same assay, conditions: Tables 2-4; values in parentheses; at 10,000 nM

| Structure (SMILES) | inhibition at 10 µM [%] |
| --- | --- |
| O=C(NCc1cccc([N+](=O)[O-])c1)C(=O)C(Cc1ccccc1)NC(=O)c1cc(C#Cc2ccccc2)nc2ccccc12 (stereo not shown) [Example 40] | 95 |
| O=C(NCCNC(=O)[C@@H]1CCCN1S(=O)(=O)c1ccccc1)C(=O)C(Cc1ccccc1)NC(=O)c1cc(C#Cc2ccccc2)nc2ccccc12 (stereo partly shown) [Example 108] | 94 |
| O=C(NC1Cc2ccccc2C1)C(=O)C(Cc1ccccc1)NC(=O)c1cc(C#Cc2ccccc2)nc2ccccc12 (stereo not shown) [Example 55] | 60 |
| O=C(NC(CO)Cc1ccccc1)C(=O)C(Cc1ccccc1)NC(=O)c1cc(C#Cc2ccccc2)nc2ccccc12 (stereo not shown) [Example 23] | 75 |
| O=C(NCCNS(=O)(=O)c1ccccc1)C(=O)C(Cc1ccccc1)NC(=O)c1cc(-c2cccnc2)nc2ccccc12 (stereo not shown) [Example 136] | 99 |
| O=C(NC12CC3CC(CC(C3)C1)C2)C(=O)C(Cc1ccccc1)NC(=O)c1cc(C#Cc2ccccc2)nc2ccccc12 (stereo not shown) [Example 15] | 41 |
| O=C(NC1CCCCC1)C(=O)C(Cc1ccccc1)NC(=O)c1cc(C#Cc2ccccc2)nc2ccccc12 (stereo not shown) [Example 30] | 85 |
| O=C(NCCNS(=O)(=O)c1cccc([N+](=O)[O-])c1)C(=O)C(Cc1ccccc1)NC(=O)c1cc(C#Cc2ccccc2)nc2ccccc12 (stereo not shown) [Example 78] | 88 |
| O=C(NCC(c1ccccc1)c1ccccc1)C(=O)C(Cc1ccccc1)NC(=O)c1cc(C#Cc2ccccc2)nc2ccccc12 (stereo not shown) [Example 44] | 85 |
| COc1ccc(C(=O)NCCNC(=O)C(=O)C(Cc2ccccc2)NC(=O)c2cc(C#Cc3ccccc3)nc3ccccc23)cc1 (stereo not shown) [Example 57] | 71 |
| O=C(NCCNC(=O)C(=O)C(Cc1ccccc1)NC(=O)c1cc(C#Cc2ccccc2)nc2ccccc12)Nc1ccc(Br)cc1 (stereo not shown) [Example 61] | 94 |

Next, values leading:

| inhibition at 10 µM [%] | Structure (SMILES) |
| --- | --- |
| 89 | O=C(NCCC1=CCCCC1)C(=O)C(Cc1ccccc1)NC(=O)c1cc(C#Cc2ccccc2)nc2ccccc12 (stereo not shown) [Example 6] |
| 98 | O=C(NCC(F)(F)F)C(=O)C(Cc1ccccc1)NC(=O)c1cc(C#Cc2ccccc2)nc2ccccc12 (stereo not shown) [Example 2] |
| 97 | COC(=O)C(CCCCNC(=O)C(=O)C(Cc1ccccc1)NC(=O)c1cc(C#Cc2ccccc2)nc2ccccc12)NC(=O)OC(C)(C)C (stereo not shown) [Example 106] |
| 80 | CC(C)CC(NC(=O)c1cc(C#Cc2ccccc2)nc2ccccc12)C(=O)C(=O)NCCCNS(=O)(=O)c1ccccc1 (stereo not shown) [Example 119] |
| 92 | COC(CNC(=O)C(=O)C(CC(C)C)NC(=O)c1cc(C#Cc2ccccc2)nc2ccccc12)OC (stereo not shown) [Example 113] |
| 82 | CC(C)CC(NC(=O)c1cc(C#Cc2ccccc2)nc2ccccc12)C(=O)C(=O)NCCNS(=O)(=O)c1ccccc1 (stereo not shown) [Example 117] |
| 95 | COCCNC(=O)C(=O)C(CC(C)C)NC(=O)c1cc(C#Cc2ccccc2)nc2ccccc12 (stereo not shown) [Example 112] |
| 100 | O=C(NCC1CC1)C(=O)C(Cc1ccccc1)NC(=O)c1cc(C#Cc2ccccc2)nc2ccccc12 (stereo not shown) [Example 4] |
| 100 | O=C(NCCCCO)C(=O)C(Cc1ccccc1)NC(=O)c1cc(C#Cc2ccccc2)nc2ccccc12 (stereo not shown) [Example 13] |
| 84 | O=C(NCC1CCCO1)C(=O)C(Cc1ccccc1)NC(=O)c1cc(C#Cc2ccccc2)nc2ccccc12 (stereo not shown) [Example 54] |
| 100 | CC(C)(C)OC(=O)NCCCNC(=O)C(=O)C(Cc1ccccc1)NC(=O)c1cc(C#Cc2ccccc2)nc2ccccc12 (stereo not shown) [Example 97] |
